Experimental data published in patent publication US10028960B2, “Pyrimidine compounds as JAK kinase inhibitors” (THERAVANCE BIOPHARMA R&D IP, LLC, priority 2016, dated 2018).
Where two headings read alike, the source gives them in different places.

Columns and labels:
[1] = Dynamic moisture sorption assessment; format: physicochemical; settings: for weight gain: humidity range of 5% to 90% relative humidity, 25° C.
Method: Dynamic moisture sorption (DMS) measurement was performed using a VTI atmospheric microbalance, SGA-100 system (VTI Corp., Hialeah, Fla. 33016). A weighed sample was used and the humidity was lowest possible value (close to 0% RH) at the start of the analysis. The DMS analysis consisted of an initial drying step (0% RH) for 120 minutes, followed by two cycles of sorption and desorption with a scan rate of 5% RH/step over the humidity range of 5% RH to 90% RH. The DMS run was performed isothermally at 25° C.

[2] = molecular target: Tyk2 (Homo sapiens (Human), UniProt P29597); test: LanthaScreen JAK biochemical assay, Tyk2; settings: read-out: Tyk 2 (pKi) (converted)
Method: (§1) A panel of four LanthaScreen JAK biochemical assays (JAK1, 2, 3 and Tyk2) were carried in a common kinase reaction buffer (50 mM HEPES, pH 7.5, 0.01% Brij-35, 10 mM MgCl2, and 1 mM EGTA). Recombinant GST-tagged JAK enzymes and a GFP-tagged STAT1 peptide substrate were obtained from Life Technologies.

[3] = molecular target: JAK2 (Homo sapiens (Human), UniProt O60674); test: LanthaScreen JAK biochemical assay, JAK2
Method: as §1

[4] = molecular target: JAK1 (Homo sapiens (Human), UniProt P23458); test: LanthaScreen JAK biochemical assay, JAK1
Method: as §1

[5] = molecular target: JAK3 (Homo sapiens (Human), UniProt P52333); test: LanthaScreen JAK biochemical assay, JAK3
Method: as §1

[6] = tested on: oxazolone-induced colitis; test: Mouse model of oxazolone-induced colitis; format: in vivo, BALB/C mice; settings: mouse, PO, 1, 3, and/or 10 mg/kg BID
Method: Oxazolone-induced colitis is an experimental model that has a histological resemblance to human ulcerative colitis (Heller et al. […], 2002, 17, 629-638). Adult BALB/C mice from Harlan were used in the assay. On day 1, animals were lightly anesthetized with isoflurane and the hairs between the shoulder were carefully removed before oxazolone (4%, 150 μL, 4:1 acetone: olive oil formulation) or vehicle solution was slowly applied for skin sensitization. Seven days after skin sensitization, the mice were fasted overnight, anesthetized with isoflurane inhalation, and a 1 mL syringe equipped with a 3.5-F catheter, filled with oxazolone solution, was inserted carefully about 4 cm into the colon of the mouse. Following insertion, 50 μL of the oxazolone solution (1%, 1:1 ethanol:water formulation) was injected very slowly (over 30 sec using an injection pump) into the colon. The catheter was removed and the mice were held vertically (head down) for 2 min to ensure that the entire oxazolone solution remained inside the colon. Drug treatment (PO, BID or TID) or vehicle was initiated a day prior to the oxazolone intrarectal (IR) challenge. Two-day post oxazolone intrarectal challenge, the Disease Activity Index (DAI) was assessed by treatment-blinded experimenters for each mouse according to the criteria score: stool consistency score (0, normal; 2, loose; 4, diarrhea), gross bleeding score (0, absence; 2, blood tinged; 4, presence), and weight loss score (0, none; 1, 1%-5%; 2, 5%-10%; 3, 10%-20%; 4, more than 20%); DAI=average of (stool consistency score+gross bleeding score+weight loss score).
Selected compounds of the invention were tested in the assay. Efficacy in the model is evidenced by a decrease in DAI score as compared with the score from vehicle treated animals.

[7] = tested on: IL-13 induced STAT6 phosphorylation in HT-29 human colorectal adenocarcinoma cells; test: Cellular JAK potency assay: inhibition of IL-13 induced STAT6 phosphorylation; format: cell-based; settings: Homo sapiens; IL-13 induced STAT6 phosphorylation, HT-29 cells; read-out: HT-29 (pIC50) (converted)
[8] = Determination of absorption in cannulated rats; format: in vivo, Sprague Dawley rats; settings: rat; for bioavailability: Sprague Dawley, plasma (jugular vein), oral vs IV, read-out: oral bioavailability (F %); for absorption at the portal vein (Fa %): oral
Method: Oral bioavailability (F %), fraction absorbed (Fa %) and fraction escaping hepatic clearance (Fh %) were determined in Sprague Dawley rats from the following two studies:
(1) Pharmacokinetics in rats following an IV dose of test compound: Following IV dosing, plasma samples were typically collected from 0-6 hr. Drug levels were determined using an LC-MS-MS method. The resulting drug levels were used to compute the IV pharmacokinetic parameters: AUC IV and Dose IV.
(2) Rats that have been cannulated in their portal vein (PV) and also in their jugular vein (JV) were dosed orally with test compound. Following oral dosing, plasma samples were typically collected from 0-6 hr from both the portal vein and the jugular vein. Drug levels were determined using an LC-MS-MS method. The resulting drug levels were used to compute the following pharmacokinetic parameters: AUC PO PV, AUC PO JV, and Dose PO.
Using data derived from the above studies, the oral bioavailability F %, and the quantities Fa % and Fh % were calculated from the following formulas: F %=(AUC PO JV/AUC IV)*(Dose IV/Dose PO)*100 Fa %=(AUC PO PV/AUC IV)*(Dose IV/Dose PO)*100 Fh %=AUC PO JV/AUC PO PV
AUC PO JV=Area under the curve following oral dose and plasma collected from the jugular vein
AUC PO PV=Area under the curve following oral dose and plasma collected from the portal vein
AUC IV=Area under the curve following an intravenous dose
Dose IV=Intravenous Dose in mg/kg
Dose PO=Oral Dose in mg/kg

[9] = tested on: mouse splenic NK, B and T cells; settings: in vivo, po
Method: Depletion of mouse splenic cells is an experimental model of immunosuppression (Kudlacz et al., Am. J. of Transplantation, 2004, 4, 51-57). The compound of Example 2 was assessed in the mouse splenic cell model following the same treatment paradigm as that used in the oxazolone-induced colitis model (Assay 8).
The compound (1, 10 and 100 mg/kg, BID) and tofacitinib (30 and 60 mg/kg, BID) as a positive control were dosed orally for three days to naïve mice. Spleens were harvested 1 h post last dose and crushed immediately for cell subtype staining. Prior to fixation, fluorophore-labelled antibodies for CD19 (FITC; B cells), CD3e (PE; pan T cells) and DX5 (APC; NK cells) were incubated with splenocyte samples from each animal to allow for simultaneous, multiple subtype % analysis on the flow cytometer. The number of total spleen cells for each animal was measured by Scepter™ 2.0 Handheld Automated Cell Counter.
The absolute number of lymphocyte subtype population (e.g., splenic B, T and NK cells) was calculated from the percentage of each subtype times total spleen cells for each animal. A one way ANOVA, with Dunnett's post hoc test, was used to compare the splenic lymphocytes number of the vehicle and test compound groups. The a level was set at p<0.05. Data were presented as the mean±SEM for each group.

JAK1, sequence (P23458 whole entry): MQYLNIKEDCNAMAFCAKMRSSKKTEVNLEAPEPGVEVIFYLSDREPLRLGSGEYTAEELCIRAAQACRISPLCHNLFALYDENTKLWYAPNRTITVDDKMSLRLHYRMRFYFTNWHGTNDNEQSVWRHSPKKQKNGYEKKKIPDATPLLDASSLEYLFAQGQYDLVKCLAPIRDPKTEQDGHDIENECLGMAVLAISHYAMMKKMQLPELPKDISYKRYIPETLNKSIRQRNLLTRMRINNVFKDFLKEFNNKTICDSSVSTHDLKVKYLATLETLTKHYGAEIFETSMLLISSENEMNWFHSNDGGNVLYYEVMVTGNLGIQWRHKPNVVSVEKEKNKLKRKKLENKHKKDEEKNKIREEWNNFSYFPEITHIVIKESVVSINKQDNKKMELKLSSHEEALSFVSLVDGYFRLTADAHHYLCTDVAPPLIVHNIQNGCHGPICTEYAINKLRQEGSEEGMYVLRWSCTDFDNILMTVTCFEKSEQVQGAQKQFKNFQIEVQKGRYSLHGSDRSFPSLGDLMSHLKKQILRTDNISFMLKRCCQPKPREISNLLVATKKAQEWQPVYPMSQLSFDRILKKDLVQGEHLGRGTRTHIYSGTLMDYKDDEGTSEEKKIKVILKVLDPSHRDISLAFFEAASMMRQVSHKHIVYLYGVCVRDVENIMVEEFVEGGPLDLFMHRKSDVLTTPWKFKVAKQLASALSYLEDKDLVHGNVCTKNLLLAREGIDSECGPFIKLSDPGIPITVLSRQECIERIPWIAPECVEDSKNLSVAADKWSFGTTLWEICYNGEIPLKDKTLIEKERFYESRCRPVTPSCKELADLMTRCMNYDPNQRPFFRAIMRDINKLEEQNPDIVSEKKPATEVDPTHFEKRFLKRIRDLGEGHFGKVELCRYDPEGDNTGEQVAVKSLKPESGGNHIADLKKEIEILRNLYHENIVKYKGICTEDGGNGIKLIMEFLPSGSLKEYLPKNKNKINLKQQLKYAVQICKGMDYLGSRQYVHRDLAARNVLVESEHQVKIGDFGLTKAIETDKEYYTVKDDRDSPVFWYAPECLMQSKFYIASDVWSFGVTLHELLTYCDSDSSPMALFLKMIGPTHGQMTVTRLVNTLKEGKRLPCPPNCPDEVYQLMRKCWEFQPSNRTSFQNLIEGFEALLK
JAK3, sequence (P52333 whole entry): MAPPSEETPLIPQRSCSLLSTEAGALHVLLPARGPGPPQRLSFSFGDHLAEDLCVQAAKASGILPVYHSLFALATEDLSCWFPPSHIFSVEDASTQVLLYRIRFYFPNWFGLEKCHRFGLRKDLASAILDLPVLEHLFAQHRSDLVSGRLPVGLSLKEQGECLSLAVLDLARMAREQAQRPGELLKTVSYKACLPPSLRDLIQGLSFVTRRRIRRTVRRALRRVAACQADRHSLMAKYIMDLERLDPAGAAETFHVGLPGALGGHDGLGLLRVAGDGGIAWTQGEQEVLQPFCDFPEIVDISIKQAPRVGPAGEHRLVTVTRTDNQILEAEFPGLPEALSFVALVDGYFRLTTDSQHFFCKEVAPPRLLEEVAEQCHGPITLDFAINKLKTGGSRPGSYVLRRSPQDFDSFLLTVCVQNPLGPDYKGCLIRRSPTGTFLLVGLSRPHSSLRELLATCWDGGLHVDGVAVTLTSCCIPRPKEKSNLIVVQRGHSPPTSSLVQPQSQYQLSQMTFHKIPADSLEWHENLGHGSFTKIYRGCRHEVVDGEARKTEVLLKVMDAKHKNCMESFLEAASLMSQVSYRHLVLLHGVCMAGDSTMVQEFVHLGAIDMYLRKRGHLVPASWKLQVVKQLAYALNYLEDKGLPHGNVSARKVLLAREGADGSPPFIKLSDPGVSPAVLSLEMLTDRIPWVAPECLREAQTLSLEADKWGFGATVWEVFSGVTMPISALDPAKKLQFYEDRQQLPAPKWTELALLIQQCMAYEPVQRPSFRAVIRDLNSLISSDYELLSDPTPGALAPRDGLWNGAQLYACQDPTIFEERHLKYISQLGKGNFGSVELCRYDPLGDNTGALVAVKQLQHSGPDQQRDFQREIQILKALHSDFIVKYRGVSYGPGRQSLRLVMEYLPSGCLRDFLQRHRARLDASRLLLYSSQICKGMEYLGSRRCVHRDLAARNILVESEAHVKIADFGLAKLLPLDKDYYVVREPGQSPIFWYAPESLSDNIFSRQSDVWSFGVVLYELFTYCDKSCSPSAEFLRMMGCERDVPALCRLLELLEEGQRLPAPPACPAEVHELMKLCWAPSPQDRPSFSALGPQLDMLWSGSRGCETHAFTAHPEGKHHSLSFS
JAK2, sequence (O60674 whole entry): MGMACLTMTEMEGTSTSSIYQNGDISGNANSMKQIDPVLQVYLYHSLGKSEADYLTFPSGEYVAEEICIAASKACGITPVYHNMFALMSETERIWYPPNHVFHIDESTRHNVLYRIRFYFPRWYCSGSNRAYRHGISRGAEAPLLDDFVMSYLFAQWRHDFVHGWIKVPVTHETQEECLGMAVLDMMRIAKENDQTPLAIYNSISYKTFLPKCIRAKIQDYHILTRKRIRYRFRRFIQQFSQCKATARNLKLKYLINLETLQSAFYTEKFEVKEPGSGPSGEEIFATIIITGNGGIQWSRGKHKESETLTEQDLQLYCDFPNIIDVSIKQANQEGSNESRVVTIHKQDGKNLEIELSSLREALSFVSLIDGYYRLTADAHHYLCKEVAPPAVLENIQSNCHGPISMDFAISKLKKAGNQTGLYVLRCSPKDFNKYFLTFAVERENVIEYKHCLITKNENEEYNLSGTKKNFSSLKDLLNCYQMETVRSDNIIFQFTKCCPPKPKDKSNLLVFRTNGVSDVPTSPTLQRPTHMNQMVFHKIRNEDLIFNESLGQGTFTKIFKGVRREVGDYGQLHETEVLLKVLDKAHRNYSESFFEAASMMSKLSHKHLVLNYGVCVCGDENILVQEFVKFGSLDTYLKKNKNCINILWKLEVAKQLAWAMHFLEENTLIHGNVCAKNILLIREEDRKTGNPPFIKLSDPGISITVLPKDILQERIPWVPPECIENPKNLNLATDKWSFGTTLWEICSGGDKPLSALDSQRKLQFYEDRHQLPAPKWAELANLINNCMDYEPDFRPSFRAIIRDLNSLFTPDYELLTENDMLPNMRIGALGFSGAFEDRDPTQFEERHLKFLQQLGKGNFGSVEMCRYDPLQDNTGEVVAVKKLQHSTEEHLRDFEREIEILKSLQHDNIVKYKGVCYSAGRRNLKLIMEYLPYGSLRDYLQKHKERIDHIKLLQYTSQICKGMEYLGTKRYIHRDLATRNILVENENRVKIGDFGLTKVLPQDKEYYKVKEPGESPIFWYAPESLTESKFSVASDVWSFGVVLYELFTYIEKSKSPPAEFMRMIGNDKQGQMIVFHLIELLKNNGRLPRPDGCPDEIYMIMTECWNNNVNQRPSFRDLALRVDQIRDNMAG
Tyk2, sequence (P29597 whole entry): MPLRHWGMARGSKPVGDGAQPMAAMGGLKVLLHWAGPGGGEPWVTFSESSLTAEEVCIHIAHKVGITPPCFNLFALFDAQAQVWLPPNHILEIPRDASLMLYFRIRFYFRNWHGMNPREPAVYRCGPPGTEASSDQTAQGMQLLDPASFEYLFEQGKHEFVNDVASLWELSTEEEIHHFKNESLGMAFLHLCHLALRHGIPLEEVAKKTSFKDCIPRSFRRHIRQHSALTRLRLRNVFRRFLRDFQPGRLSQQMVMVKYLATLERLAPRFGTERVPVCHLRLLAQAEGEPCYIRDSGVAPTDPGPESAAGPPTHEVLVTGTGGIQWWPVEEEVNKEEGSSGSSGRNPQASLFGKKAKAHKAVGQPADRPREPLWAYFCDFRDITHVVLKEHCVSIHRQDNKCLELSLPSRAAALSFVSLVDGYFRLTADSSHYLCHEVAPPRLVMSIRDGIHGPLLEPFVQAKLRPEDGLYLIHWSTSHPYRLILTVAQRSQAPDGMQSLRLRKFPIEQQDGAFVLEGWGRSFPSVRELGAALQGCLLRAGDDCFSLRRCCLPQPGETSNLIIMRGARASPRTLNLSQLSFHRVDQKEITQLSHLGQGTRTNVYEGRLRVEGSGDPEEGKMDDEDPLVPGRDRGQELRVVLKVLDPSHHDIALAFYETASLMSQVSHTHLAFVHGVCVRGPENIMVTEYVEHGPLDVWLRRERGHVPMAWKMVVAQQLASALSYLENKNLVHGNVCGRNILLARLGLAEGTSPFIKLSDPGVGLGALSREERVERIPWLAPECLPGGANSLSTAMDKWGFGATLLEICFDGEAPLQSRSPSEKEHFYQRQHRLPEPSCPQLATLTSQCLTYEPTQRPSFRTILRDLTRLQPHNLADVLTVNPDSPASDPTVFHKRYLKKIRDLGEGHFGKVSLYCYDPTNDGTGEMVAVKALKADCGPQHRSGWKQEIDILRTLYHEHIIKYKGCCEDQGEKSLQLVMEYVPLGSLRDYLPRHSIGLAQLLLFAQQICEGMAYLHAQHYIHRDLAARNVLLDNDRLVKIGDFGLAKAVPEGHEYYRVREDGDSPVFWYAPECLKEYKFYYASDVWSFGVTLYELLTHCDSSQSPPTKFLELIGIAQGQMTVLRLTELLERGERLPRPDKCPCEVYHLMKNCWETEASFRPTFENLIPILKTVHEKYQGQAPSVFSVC

| SMILES | weight gain [1] | Ki [2] [nM] | JAK 2 (pKi) [3] | decrease in DAI score as compared with vehicle treated animals [6] | IC50 [7] [nM] | bioavailability [8] [%] | absorption at the portal vein (Fa %) [8] | other results |
| --- | --- | --- | --- | --- | --- | --- | --- | --- |
| COc1cc(Nc2cc(CO)[nH]n2)nc(N(C)[C@@H]2C[C@H]3CCC[C@@H](C2)N3S(=O)(=O)N2CC(C#N)C2)n1 [Form II, 1-(((1R,3s,5S)-3-((4-((5-(hydroxymethyl)-1H-pyrazol-3-yl)amino)-6-methoxypyrimidin-2-yl)(methyl)amino)-9-azabicyclo[3.3.1]nonan-9-yl)sulfonyl)azetidine-3-carbonitrile] | about 1.2% | – | – | – | – | – | – | hygroscopicity ([1]; 5% to 90% relative humidity): slightly hygroscopic |
| COCCS(=O)(=O)N1[C@@H]2CCC[C@H]1C[C@H](N(C)c1nc(Nc3cc(CO)[nH]n3)cc(OC)n1)C2 [Example 4, (3-((6-methoxy-2-(((1R,3s,5S)-9-((2-methoxyethyl)sulfonyl)-9-azabicyclo[3.3.1]nonan-3-yl)(methyl)amino)pyrimidin-4-yl)amino)-1H-pyrazol-5-yl)methanol] | – | 0.1 to 1 | A (A represents a pKi value≥10 (Ki≤0.1 nM)) | statistically significant decrease | 31.6 to 200 | < 5 | greater than 40% | Ki ([4]; read-out: JAK 1 (pKi) (converted)): 0.1 to 1 nM; Ki ([5]; read-out: JAK 3 (pKi) (converted)): 1 to 10 nM |
| COc1cc(Nc2cc(CO)[nH]n2)nc(N(C)[C@@H]2C[C@H]3CC[C@@H](C2)N3S(=O)(=O)N2CC(C#N)C2)n1 [Example 1, 1-(((1R,3s,5S)-3-((4-((5-(Hydroxymethyl)-1H-pyrazol-3-yl)amino)-6-methoxypyrimidin-2-yl)(methyl)amino)-8-azabicyclo[3.2.1]octan-8-yl)sulfonyl)azetidine-3-carbonitrile] | – | 0.1 to 1 | A (A represents a pKi value≥10 (Ki≤0.1 nM)) | did not exhibit a statistically significant decrease | 31.6 to 200 | < 5 | less than 25% | JAK 1 (pKi) [4]: A (A represents a pKi value≥10 (Ki≤0.1 nM)); Ki [5]: 1 to 10 nM |
| C[C@@H]1CCN(C(=O)CC#N)C[C@@H]1N(C)c1ncnc2[nH]ccc12 [tofacitinib, reference compound] | – | – | – | – | – | – | – | treatment effect on B and T cell populations [9]: No treatment effect |
| COc1cc(Nc2cc(CO)[nH]n2)nc(N(C)[C@@H]2C[C@H]3CCC[C@@H](C2)N3S(=O)(=O)N2CC(C#N)C2)n1 [Form I, 1-(((1R,3s,5S)-3-((4-((5-(hydroxymethyl)-1H-pyrazol-3-yl)amino)-6-methoxypyrimidin-2-yl)(methyl)amino)-9-azabicyclo[3.3.1]nonan-9-yl)sulfonyl)azetidine-3-carbonitrile] | less than 0.4% | – | – | – | – | – | – | – |
